Measurements published in ChEMBL document CHEMBL4152339, “Design and synthesis of novel 1H-tetrazol-5-amine based potent antimicrobial agents: DNA topoisomerase IV and gyrase affinity evaluation supported by molecular docking studies” (Eur J Med Chem, 2018).
pIC50: −log10 of the molar value. Converted amounts (≈) assume the structure as drawn.

Tests used:
[1] = test system: Bacillus cereus; test: Antibacterial activity against Bacillus cereus ATCC 11778 after 18 hrs by CLSI disc diffusion method; format: functional; conditions: ATCC 11778, 18 h
[2] = test system: Micrococcus luteus; test: Antibacterial activity against Micrococcus luteus ATCC 9341 after 18 hrs by CLSI disc diffusion method; format: functional; conditions: ATCC 9341, 18 h
[3] = test system: Bacillus spizizenii; test: Antibacterial activity against Bacillus subtilis ATCC 6633 after 18 hrs by CLSI disc diffusion method; format: functional; conditions: ATCC 6633, 18 h
[4] = test system: Enterococcus hirae; test: Antibacterial activity against Enterococcus hirae ATCC 10541 after 18 hrs by CLSI disc diffusion method; format: functional; conditions: ATCC 10541, 18 h
[5] = test system: Staphylococcus aureus; test: Antibacterial activity against Staphylococcus aureus ATCC 6538 after 18 hrs by CLSI disc diffusion method; format: functional; conditions: ATCC 6538, 18 h
[6] = test system: Staphylococcus epidermidis; test: Antibacterial activity against Staphylococcus epidermidis ATCC 35984 after 18 hrs by CLSI […] method; format: functional; conditions: ATCC 35984, 18 h
[7] = test system: Staphylococcus aureus; test: Antibacterial activity against Staphylococcus aureus NCTC 4163 after 18 hrs by CLSI disc diffusion method; format: functional; conditions: NCTC 4163, 18 h
[8] = test system: Staphylococcus epidermidis; test: Antibacterial activity against Staphylococcus epidermidis ATCC 12228 after 18 hrs by CLSI disc diffusion method; format: functional; conditions: ATCC 12228, 18 h
[9] = test system: Micrococcus luteus; test: Antibacterial activity against Micrococcus luteus ATCC 10240 after 18 hrs by CLSI disc diffusion method; format: functional; conditions: ATCC 10240, 18 h
[10] = test system: Enterococcus faecalis; test: Antibacterial activity against Enterococcus faecalis ATCC 29212 after 18 hrs by CLSI disc diffusion method; format: functional; conditions: ATCC 29212, 18 h
[11] = test system: Pseudomonas aeruginosa; test: Antibacterial activity against Pseudomonas aeruginosa ATCC 27853 after 18 hrs by CLSI disc diffusion method; format: functional; conditions: ATCC 27853, 18 h
[12] = test system: Proteus vulgaris; test: Antibacterial activity against Proteus vulgaris NCTC 4635 after 18 hrs by CLSI disc diffusion method; format: functional; conditions: NCTC 4635, 18 h
[13] = test system: Bordetella bronchiseptica; test: Antibacterial activity against Bordetella bronchiseptica ATCC 4617 after 18 hrs by CLSI disc diffusion method; format: functional; conditions: ATCC 4617, 18 h
[14] = test system: Staphylococcus aureus; test: Antibacterial activity against Staphylococcus aureus ATCC 25923 after 18 hrs by CLSI disc diffusion method; format: functional; conditions: ATCC 25923, 18 h
[15] = test system: Escherichia coli; test: Antibacterial activity against Escherichia coli ATCC 10538 after 18 hrs by CLSI disc diffusion method; format: functional; conditions: ATCC 10538, 18 h
[16] = test system: Pseudomonas aeruginosa; test: Antibacterial activity against Pseudomonas aeruginosa ATCC 15442 after 18 hrs by CLSI disc diffusion method; format: functional; conditions: ATCC 15442, 18 h
[17] = Selectivity index, ratio of IC50 for human HaCaT cells to MIC for Proteus vulgaris NCTC 4635; format: toxicity; conditions: read-out: Selectivity Index
[18] = Selectivity index, ratio of IC50 for human HaCaT cells to MIC for Staphylococcus aureus NCTC 4163; format: toxicity; conditions: read-out: Selectivity Index
[19] = test system: A549; test: Cytotoxicity activity against human A549 cells assessed as reduction in cell viability after 72 hrs by MTT assay; format: cell-based; conditions: A549, 72 h
[20] = Selectivity index, ratio of IC50 for human HaCaT cells to MIC for Escherichia coli ATCC 10538; format: toxicity; conditions: read-out: Selectivity Index
[21] = Selectivity index, ratio of IC50 for human HaCaT cells to MIC for Bacillus subtilis ATCC 6633; format: toxicity; conditions: read-out: Selectivity Index
[22] = test system: HaCaT; test: Cytotoxicity activity against human HaCaT cells assessed as reduction in cell viability after 72 hrs by MTT assay; format: cell-based
[23] = Selectivity index, ratio of IC50 for human HaCaT cells to MIC for Bordetella bronchiseptica ATCC 4617; format: toxicity; conditions: read-out: Selectivity Index
[24] = Selectivity index, ratio of IC50 for human HaCaT cells to MIC for Micrococcus luteus ATCC 10240; format: toxicity; conditions: read-out: Selectivity Index
[25] = Selectivity index, ratio of IC50 for human HaCaT cells to MIC for Enterococcus hirae ATCC 10541; format: toxicity; conditions: read-out: Selectivity Index

With `O=C(O)n1nnnc1NCCc1c[nH]c2ccccc12` the MIC [1] was 7 µM (≈ 1.91 µg/mL), the MIC [2] was 15 µM (≈ 4.08 µg/mL) and the MIC [3] was 15 µM (≈ 4.08 µg/mL). It also gave an MIC [4] of 29 µM (≈ 7.9 µg/mL), an MIC [5] of 15 µM (≈ 4.08 µg/mL) and an MIC [6] of 15 µM (≈ 4.08 µg/mL). The MIC [7] was 59 µM (≈ 16.1 µg/mL), the MIC [8] was 29 µM (≈ 7.9 µg/mL) and the MIC [9] was 15 µM (≈ 4.08 µg/mL). For the same compound, the MIC [10] was 59 µM (≈ 16.1 µg/mL), the MIC [11] was 471 µM (≈ 128 µg/mL) and the MIC [12] was 15 µM (≈ 4.08 µg/mL). For the same compound, the MIC [13] was 29 µM (≈ 7.9 µg/mL), the MIC [14] was 15 µM (≈ 4.08 µg/mL) and the MIC [15] was 29 µM (≈ 7.9 µg/mL). For the same compound, the MIC [16] was 471 µM (≈ 128 µg/mL).
In the case of `O=[N+]([O-])c1ccc(-n2nnnc2Nn2cnnc2)cc1`, the MIC [1] was 29 µM (≈ 7.92 µg/mL), the selectivity ratio [17] was 0.55 and the selectivity ratio [18] was 9.28. For the same compound, the MIC [2] was 59 µM (≈ 16.1 µg/mL), the pIC50 [19] was 4.22 and the MIC [3] was 29 µM (≈ 7.92 µg/mL). The selectivity ratio [20] was 0.55, the MIC [4] was 29 µM (≈ 7.92 µg/mL) and the MIC [5] was 7 µM (≈ 1.91 µg/mL). The MIC [6] was 4 µM (≈ 1.09 µg/mL), the MIC [7] was 7 µM (≈ 1.91 µg/mL) and the MIC [8] was 4 µM (≈ 1.09 µg/mL). The MIC [9] was 59 µM (≈ 16.1 µg/mL), the MIC [10] was 234 µM (≈ 63.9 µg/mL) and the MIC [11] was 938 µM (≈ 256 µg/mL). For the same compound, the selectivity ratio [21] was 2.24, the MIC [12] was 117 µM (≈ 32 µg/mL) and the MIC [13] was 117 µM (≈ 32 µg/mL). For the same compound, the MIC [14] was 7 µM (≈ 1.91 µg/mL), the pIC50 [22] was 4.19 and the MIC [15] was 117 µM (≈ 32 µg/mL). For the same compound, the selectivity ratio [23] was 0.55, the selectivity ratio [24] was 1.1 and the MIC [16] was 938 µM (≈ 256 µg/mL). It also gave a selectivity ratio [25] of 2.24.
`Fc1ccc(-n2nnnc2Nn2cnnc2)cc1` gave an MIC [1] of 65 µM (≈ 16 µg/mL), a selectivity ratio [17] of 1.47 and a selectivity ratio [18] of 1.29. For the same compound, the MIC [2] was 2 µM (≈ 0.492 µg/mL), the pIC50 [19] was 4.10 and the MIC [3] was 65 µM (≈ 16 µg/mL). It also gave a selectivity ratio [20] of 1.47, an MIC [4] of 65 µM (≈ 16 µg/mL) and an MIC [5] of 33 µM (≈ 8.12 µg/mL). The MIC [6] was 16 µM (≈ 3.94 µg/mL), the MIC [7] was 65 µM (≈ 16 µg/mL) and the MIC [8] was 33 µM (≈ 8.12 µg/mL). The MIC [9] was 2 µM (≈ 0.492 µg/mL), the MIC [10] was 8 µM (≈ 1.97 µg/mL) and the MIC [11] was 1040 µM (≈ 256 µg/mL). For the same compound, the selectivity ratio [21] was 1.29, the MIC [12] was 8 µM (≈ 1.97 µg/mL) and the MIC [13] was 130 µM (≈ 32 µg/mL). It also gave an MIC [14] of 65 µM (≈ 16 µg/mL), a pIC50 [22] of 4.08 and an MIC [15] of 16 µM (≈ 3.94 µg/mL). For the same compound, the selectivity ratio [23] was 0.09, the selectivity ratio [24] was 1.47 and the MIC [16] was 1040 µM (≈ 256 µg/mL). The selectivity ratio [25] was 2.89.
In the case of `FC(F)(F)c1ccc(-n2nnnc2Nc2nccs2)cc1`, the MIC [1] was 26 µM (≈ 8.12 µg/mL), the selectivity ratio [17] was 0.19 and the selectivity ratio [18] was 1.56. It also gave an MIC [2] of 6 µM (≈ 1.87 µg/mL), a pIC50 [19] of 4.12 and an MIC [3] of 26 µM (≈ 8.12 µg/mL). The selectivity ratio [20] was 0.19, the MIC [4] was 51 µM (≈ 15.9 µg/mL) and the MIC [5] was 51 µM (≈ 15.9 µg/mL). For the same compound, the MIC [6] was 6 µM (≈ 1.87 µg/mL), the MIC [7] was 51 µM (≈ 15.9 µg/mL) and the MIC [8] was 13 µM (≈ 4.06 µg/mL). It also gave an MIC [9] of 51 µM (≈ 15.9 µg/mL), an MIC [10] of 51 µM (≈ 15.9 µg/mL) and an MIC [11] of 411 µM (≈ 128 µg/mL). For the same compound, the selectivity ratio [21] was 3.07, the MIC [12] was 411 µM (≈ 128 µg/mL) and the MIC [13] was 205 µM (≈ 64 µg/mL). The MIC [14] was 26 µM (≈ 8.12 µg/mL), the pIC50 [22] was 4.10 and the MIC [15] was 411 µM (≈ 128 µg/mL). The selectivity ratio [23] was 0.39, the selectivity ratio [24] was 1.56 and the MIC [16] was 411 µM (≈ 128 µg/mL). For the same compound, the selectivity ratio [25] was 1.56.
Compound `Brc1ccc(-n2nnnc2Nn2cnnc2)cc1` has an MIC [1] of 26 µM (≈ 7.98 µg/mL), a selectivity ratio [17] of 5 and a selectivity ratio [18] of 1.25. It also gave an MIC [2] of 26 µM (≈ 7.98 µg/mL), a pIC50 [19] of 4.21 and an MIC [3] of 26 µM (≈ 7.98 µg/mL). The selectivity ratio [20] was 1.25, the MIC [4] was 52 µM (≈ 16 µg/mL) and the MIC [5] was 52 µM (≈ 16 µg/mL). It also gave an MIC [6] of 13 µM (≈ 3.99 µg/mL), an MIC [7] of 52 µM (≈ 16 µg/mL) and an MIC [8] of 26 µM (≈ 7.98 µg/mL). For the same compound, the MIC [9] was 26 µM (≈ 7.98 µg/mL), the MIC [10] was 52 µM (≈ 16 µg/mL) and the MIC [11] was 834 µM (≈ 256 µg/mL). For the same compound, the selectivity ratio [21] was 2.5, the MIC [12] was 13 µM (≈ 3.99 µg/mL) and the MIC [13] was 209 µM (≈ 64.2 µg/mL). The MIC [14] was 52 µM (≈ 16 µg/mL), the pIC50 [22] was 4.19 and the MIC [15] was 52 µM (≈ 16 µg/mL). The selectivity ratio [23] was 0.31, the selectivity ratio [24] was 2.5 and the MIC [16] was 834 µM (≈ 256 µg/mL). For the same compound, the selectivity ratio [25] was 1.25.
Compound `COc1cccc2c1C(=O)c1c(O)c3c(c(O)c1C2=O)C[C@@](O)(C(=O)CO)C[C@@H]3O[C@H]1C[C@H](N)[C@H](O)[C@H](C)O1` [DOXORUBICIN] has a pIC50 [19] of 6.20 and a pIC50 [22] of 5.96.
